Reference: ChEMBL document CHEMBL1147567, “Neuroprotective effects of flavones on hydrogen peroxide-induced apoptosis in SH-SY5Y neuroblostoma cells” (Bioorg Med Chem Lett, 2004)

How the values were obtained:
[1] = Free radical scavenging activity of DPPH was determined
SH-SY5Y [2] = assay: Percent increase against SH-SY5Y human neuroblastoma cell viability induced by hydrogen peroxide at 50 uM concentration; type: functional
SH-SY5Y [3] = assay: Percent increase against SH-SY5Y human neuroblastoma cell viability induced by hydrogen peroxide at 2 uM concentration; type: functional
SH-SY5Y [4] = assay: Percent increase against SH-SY5Y human neuroblastoma cell viability induced by hydrogen peroxide at 10 uM concentration; type: functional

Structure (SMILES)	IC50 [1]	Increase (SH-SY5Y [2])	Increase (SH-SY5Y [3])	Increase (SH-SY5Y [4])
O=c1cc(-c2ccc(O)cc2)oc2cc(O)cc(O)c12 [APIGENIN]	> 100 µM	63.7%	24.6%	52.4%
O=C1O[C@H]([C@@H](O)CO)C(O)=C1O [ASCORBIC ACID]	26.5 µM	–	–	–
O=c1cc(-c2ccccc2)oc2cc(O)cc(O)c12 [CHRYSIN]	> 100 µM	–	–	–
O=c1cc(-c2ccc(O)c(O)c2)oc2cc(O)cc(O)c12 [LUTEOLIN]	10.4 µM	77.5%	76.4%	84%
COc1c(O)cc(O)c2c(=O)cc(-c3ccccc3)oc12 [WOGONIN]	> 100 µM	–	–	–
